Experimental data as given in US20260056204A1, “COMPOSITIONS AND METHODS FOR CHEMOPROTEOMIC REAGENT SYNTHESIS AND APPLICATION” (The Regents of the University of California, priority 2023, published 2026).

Test system: cysteines in HEK293T cell lysates
Assay: competitive ABPP workflow with DADPS capture reagents
Format: biochemical
Description: To obtain an isotopically enriched DADPS capture reagent, the synthesis and application of heavy L-valine (^13C5 ^15N)— containing reagent NBIV-010 was focused on, as the relatively large +6 Da mass difference is ideal for MS1-based quantification. Further motivating the isotopic reagent design, a +6-mass difference is used in isoTOP-ABPP and isoDTB reagents together with the previously reported heavy and light azido-biotin reagents, which was envisioned could facilitate head-to-head comparisons. Using the same synthetic strategy, heavy reagent NBIV-010 was obtained in 58% yield. […] These reagents in a were further validated in a competitive ABPP workflow. Using HEK293T cell lysates, samples were subjected to either vehicle, DMSO, or 500 μM KB02. Upon labeling with IAA and clicking the samples with either heavy or light DADPS probe (NBIV-010 or NBIV-009, respectively; FIG. 4B) or heavy or light biotin azide, the samples were subjected to SP3 cleanup. After enrichment with either streptavidin resin, for DADPS labeled peptides, or NeutrAvidin resin, for biotin azide labeled peptides, the peptides were cleaved or eluted off resin, respectively, and analyzed by LC-MS/MS. […]

Structure (SMILES): COc1ccc2c(c1)CCCN2C(=O)CCl [KB02]
- cysteines with ratios>2 shared by DADPS and biotin azide datasets (high confidence KB02-labeled sites) (500 μM KB02): 163
- cysteines found in peptides with Log2 MS1 extracted ion chromatograph area ratios>2 (cysteines modified by KB02; ligandable cysteines) (500 μM KB02 vs DMSO, heavy/light DADPS probes NBIV-010/NBIV-009, three biological replicates): 404
